Experimental data taken from PMC8875555, “Discovery of Kinase and Carbonic Anhydrase Dual Inhibitors by Machine Learning Classification and Experiments” (Pharmaceuticals, 2022).
Values joined by “and” are separate entries in the source; they are usually repeats but may differ in a detail not shown here. Equal values may be shown once.

Tests used:
[1] = test system: SYK; design: method as in PMID 12941345; settings: cited from earlier work
[2] = target: T1, CA I (Homo sapiens, UniProt P00915); test: CA enzyme inhibition with 4-nitrophenyl acetate as substrate; type: biochemical; settings: converted from IC50 by Cheng-Prusoff; 5 nM enzyme, 1 mM substrate, 0.01% Triton X-100, 37 °C
Method: (§1) All the reagents used for the biochemical experiments for enzyme inhibitions were bought from Cayman (Ann Harbor, MI, USA), Sigma–Aldrich (St. Louis, MO, USA), Sino Biological (Beijing, China), or Tokyo Chemical Industry (Tokyo, Japan). Inhibitory activities of small molecules on CAs were measured using 4-nitrophenyl acetate as a substrate. […] The changes were measured at 96-well microplates using Epoch2 from BioTek (Winooski, VT, USA). The slope in a time-dependent measurement was calculated by linear regression and interpreted as the quantified activity. Each 200 μL reaction solution comprised 5 nM enzyme and 1 mM substrate buffered using phosphate-buffered saline containing 5% dimethyl sulfoxide and 0.01% (w/v) Triton X-100 under the absence or the presence of inhibitor. […] The substrate-only solution was used as a control to consider autohydrolysis of the substrate. The value of IC50 was converted into Ki using the Cheng–Prusoff equation [66].

[3] = target: CA IX (Homo sapiens, UniProt Q16790); test: as above; type: biochemical; settings: converted from IC50 by Cheng-Prusoff; 5 nM enzyme, 1 mM substrate, 0.01% Triton X-100, 37 °C
Method: as §1

[4] = target: T2, CA II (Homo sapiens, UniProt P00918); test: as above; type: biochemical; settings: converted from IC50 by Cheng-Prusoff; 5 nM enzyme, 1 mM substrate, 0.01% Triton X-100, 37 °C
Method: as §1

[5] = target: CA XII (Homo sapiens, UniProt O43570); test: as above; type: biochemical
Method: as §1

[6] = target: T1, CA I; test: Differential scanning fluorimetry (DSF); type: binding; settings: 200 µM inhibitor; for CA I ΔTm: shift from apo CA I
Method: (§2) The biophysical experiments involved the binding of small molecules to CA I or CA II, which were quantified using the Tm of DSF. The profile was generated by CFX-connect […] (BioRad, Hercules, CA, USA). The solution contained 5× SYPRO® Orange and 0.5 µM recombinant human CA I or CA II in the absence or presence of 200 µM inhibitor. […] The patterns were nonlinearly fitted to the Boltzmann equation to calculate Tm. […] Nonlinear curve fittings for Ki in enzyme assay and Tm in DSF were performed using MATLAB (MathWorks, Natick, MA, USA).

[7] = target: T2, CA II; test: Differential scanning fluorimetry (DSF); type: binding; settings: 200 µM inhibitor; for CA II ΔTm: shift from apo CA II
Method: as §2

[8] = test system: MST1; design: method as in PMID 27535619; settings: cited from earlier work
[9] = test system: MST2; design: method as in PMID 27535619; settings: cited from earlier work
[10] = test system: CDK2; design: method as in PMID 15974571; settings: cited from earlier work

Chain of CA XII (O43570 25-354): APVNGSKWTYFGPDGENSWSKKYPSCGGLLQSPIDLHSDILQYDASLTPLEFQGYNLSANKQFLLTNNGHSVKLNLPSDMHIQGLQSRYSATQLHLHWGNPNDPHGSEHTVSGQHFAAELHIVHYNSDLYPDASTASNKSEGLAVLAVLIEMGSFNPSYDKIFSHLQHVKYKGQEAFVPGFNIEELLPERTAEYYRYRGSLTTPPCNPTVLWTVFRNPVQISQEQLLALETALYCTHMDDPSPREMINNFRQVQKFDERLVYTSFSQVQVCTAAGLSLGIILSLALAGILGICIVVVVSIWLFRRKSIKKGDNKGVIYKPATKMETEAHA
T1 sequence (P00915 whole entry): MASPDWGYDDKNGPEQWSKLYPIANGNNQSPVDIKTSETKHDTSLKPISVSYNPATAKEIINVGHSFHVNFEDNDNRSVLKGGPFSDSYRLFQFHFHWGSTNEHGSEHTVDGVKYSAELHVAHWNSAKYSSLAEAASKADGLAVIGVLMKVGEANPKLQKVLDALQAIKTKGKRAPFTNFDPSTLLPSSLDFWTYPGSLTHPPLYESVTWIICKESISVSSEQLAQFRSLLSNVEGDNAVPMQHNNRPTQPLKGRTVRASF

Ki [2]	Ki [3]	Ki [4]	Ki [5] [nM]	CA I ΔTm [6] [degrees]	CA II ΔTm [7] [degrees]	weaker in inhibiting CA XII ([5]; compared with CA I, CA II and CA IX)	CA I Tm ([6]; 0.5 µM CA I, enzyme alone 56.2 ± 0.1) [°C]	CA II Tm ([7]; 0.5 µM CA II, enzyme alone 52.6 ± 0.2) [°C]	SMILES	IC50 [1] [nM]	IC50 [8] [nM]	IC50 [9] [nM]	IC50 [10] [nM]
60000 ± 9000 nM	2700 ± 300 nM	16000 ± 5000 nM	13000 ± 4000	0.1	0.2	–	–	–	Cn1cc(/C=C2\C(=O)Nc3ccc(S(N)(=O)=O)cc32)c2ccccc21 [Compound 6046]	[…]	–	–	–
67 ± 10 nM	1700 ± 500 nM	242 ± 32 nM	800 ± 300	–	–	–	–	–	Cc1ccc(Nc2nccc(N(C)c3ccc4c(C)n(C)nc4c3)n2)cc1S(N)(=O)=O [Compound 5698, pazopanib]	–	–	–	–
~30 nM and 32 nM	~30 nM and 31 nM	~30 nM and 24 nM	1000	5.7	7.3	approximately 30 fold	61.9±0.2	59.9±0.2	CN1C(=O)c2sccc2N(C)c2nc(Nc3ccc(S(N)(=O)=O)cc3)ncc21 [XMU-MP-1]	–	71	31	–
258 ± 58 nM	100 ± 28 nM	149 ± 21 nM	254 ± 40	–	3.2	–	–	–	Nc1nc(Nc2ccc(S(N)(=O)=O)cc2)nn1C(=S)Nc1c(F)cccc1F [Compound 5946, CDK1/2 inhibitor III]	–	–	–	0.5
207 ± 66 nM	220 ± 32 nM	[…]	[…]	[…]	[…]	–	–	–	Nc1nc(Nc2ccc(S(N)(=O)=O)cc2)nn1C(=O)c1c(F)cccc1F [Compound 5932, JNJ-7706621]	–	–	–	[…]
